In US9968565B2, “Method for protection and improvement of liver health with meso-zeaxanthin compositions” (OMNIACTIVE HEALTH TECHNOLOGIES LIMITED, priority 2015, dated 2018):

Test system: HepG2 cells
Experiment: In vitro fatty liver model, lipid content in oleic acid-treated HepG2 hepatocytes (Adipored staining)
Type: cell-based
Settings: HepG2, 1.5 mM Oleic Acid + 100 uM
Method: HepG2 cells were seeded at a density of 5×10^4 cells/mL in 24 well plates and cultured to 100% confluency. Once 100% confluent, HepG2 Growth Media (ATCC-formulated Eagle's Minimum Essential Media (EMEM) 500 mL+10% FBS-50 mL+1% pen/strep antibiotic-5 mL) was […] fetal bovine serum (FBS) Free Growth Media (1 mL per well) for 24 hours. Following 24 hour FBS-free conditions, cells were treated with differing concentrations of Oleic Acid (0.5, 1.0, 1.5, 2.0 mM; Sigma O3008) to induce fatty liver conditions. From preliminary Adipored Staining data, 1.5 mM Oleic Acid (OA) was deemed the most appropriate concentration of OA to induce maximum steatosis (accumulation of large vacuoles of triglyceride fat in liver cells—thus it is abnormal retention of lipids within a cell) while remaining non-cytotoxic.

Structure (SMILES): C[C@@H]1O[C@@H](OC[C@H]2O[C@@H](Oc3c(-c4ccc(O)c(O)c4)oc4cc(O)cc(O)c4c3=O)[C@H](O)[C@@H](O)[C@@H]2O)[C@H](O)[C@H](O)[C@H]1O [Rutin]
- % Decrease in Lipid Content: 22%
- Lipid Content: 23088.67
